According to paper PMC11487632 (Molecular Pharmaceutics, 2024):
≈ marks a conversion by molar mass, not a printed value. Where two headings read alike, the source gives them in different places. Each block holds one compound with its values, some of them ahead of it.

Assays:
[1] = design: method as in previous study; settings: ref previous study, cited from earlier work; for solubility during the predissolution procedure: presence or absence of cimetidine (CIM) in solution insignificant; for solubility during the codissolution procedure: simultaneous addition of CIM crystal powder
[2] = Pre-dissolution procedure: apparent solubility of pure APIs in buffer with predissolved XAT derivatives (HPLC, Noyes-Whitney fit); type: physicochemical; settings: for effect of predissolved TPH on API solubility: 5-20 mM TPH in 100 mM phosphate buffer pH 6.8; for effect of predissolved CFN on API solubility: 10-50 mM CFN in 100 mM phosphate buffer pH 6.8; for solubility: phosphate buffer, 25 °C, pH 6.8, aqueous buffer, thermodynamic from solid, read-out: solubility (eq 1); for solubility / saturated concentration (curve fitting eq 1): 100 mM phosphate buffer pH 6.8, 298 K
Procedure: The sample solution was filtered with a membrane filter (Minisart RC 4 with 0.22 μm pore size; Sartorius, Göttingen, Germany). The fractionation of the API or XAT derivative in the filtrate was performed via HPLC (Shimadzu Co., Kyoto, Japan) using a mobile phase of 25 mM citric acid buffer (pH 3.0):methanol of 3:7 at a flow rate of 1 mL/min.
To assess the apparent solubility of pure APIs in solutions of XAT derivatives, “pre-dissolution procedures” were conducted. […] The API samples, adjusted to exceed saturation, were added to 5 mL of the dissolving medium and shaken in a water bath at 298 K for a specific duration. The concentration of API in the supernatant was measured using HPLC. The solubility concentrations of all APIs were determined from each API’s standard curves. The R-square values of all standard curves are over 0.995.
The dissolution process of the pure APIs or API mixtures assumably corresponded to a linear correlation or a saturation curve. The API samples were homogenized using an agate mortar and pestle to align the particle sizes without sieving, considering the potential contamination of superfine powders. The immediate dissolution of the adhering powders in the solution at t = 0 was assumed; additionally, their concentrations were treated as the initial concentration (C = C0) if a sink condition was applicable owing to the higher solubility of the API.
For curves resembling a saturation curve, nonlinear curve fitting using the Noyes–Whitney integral expression (eq 1) was applied:[48],[49] [drawing 1] 1 where Ceq is the apparent solubility of the API, k is the dissolution rate constant, and S is the surface area of the sample particles. […] Curve-fitting procedures employed the Solver module of Microsoft Excel 2016 with the implemented GRG nonlinear option. The recrystallized precipitates were verified by X-ray powder diffraction (XRPD) and differential scanning calorimetry (DSC); no cocrystals or other generated solids were observed.

[3] = Co-dissolution procedure: apparent solubility of API mixtures with CFN, TPH, TBR or XAT (HPLC, Noyes-Whitney fit); type: physicochemical; settings: for effect of codissolved CFN on API solubility / saturated concentration / effect of codissolved TBR on API dissolution curve / saturated concentration / effect of codissolved TPH on API solubility / saturated concentration / effect of codissolved XAT on API dissolution curve / saturated concentration: equimolar mixture; for increase of XAT-derivative solubility by IBP and DCF (NSAIDs): equimolar IBP or DCF mixtures
[4] = cited from earlier work
[5] = cited from earlier work; remark: listed apart in the source
[6] = ref 18 (given for CFN and TPH only); cited from earlier work
[7] = ref 18 (given for CFN and TPH only); cited from earlier work; remark: listed apart in the source
[8] = ref 18 (not printed for TBR and XAT); cited from earlier work

effect of predissolved TPH on API solubility [2]: enhanced
effect of predissolved CFN on API solubility [2]: enhanced
solubility ([2]; in the absence of CFN (CFN series)): 1760 ± 44 µM (≈ 521 µg/mL)
solubility ([2]; in the absence of TPH (TPH series)): 1690 ± 53 µM (≈ 499 µg/mL)
effect of codissolved CFN on API solubility / saturated concentration ([3]; 100 mM phosphate buffer pH 6.8): increased
effect of codissolved TBR on API dissolution curve / saturated concentration ([3]; 100 mM phosphate buffer pH 6.8): did not significantly differ
effect of codissolved TPH on API solubility / saturated concentration ([3]; 100 mM phosphate buffer pH 6.8): increased
effect of codissolved XAT on API dissolution curve / saturated concentration ([3]; 100 mM phosphate buffer pH 6.8): did not significantly differ
SMILES: O=C(O)Cc1ccccc1Nc1c(Cl)cccc1Cl [DCF, diclofenac]
effect of famotidine (FAM) on final solubility ([1]; equilibrated solution, FAM delayed dissolution): not affected
solubility during the predissolution procedure [1]: 829 µM (≈ 246 µg/mL)
solubility during the codissolution procedure [1]: 3390 µM (≈ 1000 µg/mL)
solubility ([4]; 50 mM MES buffer (pH 5.5)): ~100 µM (≈ 29.6 µg/mL)
solubility ([4]; 100 mM phosphate buffer (pH 6.45)): approximately 0.7 mM
change of solubility on addition of 10 mM LDC to the dissolution buffer ([4]; within the buffering capacity range): increased

SMILES: CC(C)Cc1ccc([C@H](C)C(=O)O)cc1 [IBP, (S)-(+)-ibuprofen]
effect of predissolved TPH on API solubility [2]: did not influence
effect of predissolved CFN on API solubility [2]: did not influence
saturated concentration (curve fitting eq 1) ([2]; predissolved CFN series, irrespective of CFN): 17.22 ± 0.61 mM
saturated concentration (curve fitting eq 1) ([2]; predissolved TPH series, irrespective of TPH): 17.34 ± 0.86 mM
effect of codissolved CFN on API solubility / saturated concentration ([3]; 100 mM phosphate buffer pH 6.8): decreased
effect of codissolved TBR on API dissolution curve / saturated concentration ([3]; 100 mM phosphate buffer pH 6.8): did not significantly affect
effect of codissolved TPH on API solubility / saturated concentration ([3]; 100 mM phosphate buffer pH 6.8): decreased
effect of codissolved XAT on API dissolution curve / saturated concentration ([3]; 100 mM phosphate buffer pH 6.8): did not significantly affect
solubility ([4]; 25 mM phosphate buffer (pH 6.88)): ~20000 µM (≈ 4130 µg/mL)
solubility ([4]; 100 mM phosphate buffer (pH 7.18)): approximately 40 mM
change of solubility in mixtures with lidocaine (LDC) ([4]; mixtures with LDC, without pH fluctuations): reduced

increase of XAT-derivative solubility by IBP and DCF (NSAIDs) [3]: 2 fold
SMILES: O=c1[nH]c(=O)c2[nH]cnc2[nH]1 [XAT, xanthine]

SMILES: Cn1c(=O)c2c(ncn2C)n(C)c1=O [CFN, caffeine]
distribution volume Vd ([5]; CFN): 0.7 L/kg

SMILES: Cn1c(=O)c2[nH]cnc2n(C)c1=O [TPH, theophylline]
water solubility [6]: 40000 µM (≈ 7210 µg/mL)
effect of IBP on saturation concentration of the XAT derivative ([3]; equimolar mixtures with IBP, effect of DCF greater than that of IBP): increased
log P [7]: 0.00
distribution volume Vd ([5]; TPH, no reference given): 0.5 L/kg
therapeutic range in the blood ([5]; narrow therapeutic range): 0.06 to 0.11 mmol/L

effect of CFN added to the dissolving medium on solubility ([2]; data not published): enhanced
SMILES: COc1ccc2c(c1)c(CC(=O)O)c(C)n2C(=O)c1ccc(Cl)cc1 [INM, indomethacin]
solubility during the predissolution procedure [1]: 625 µM (≈ 224 µg/mL)
solubility during the codissolution procedure [1]: 3340 µM (≈ 1200 µg/mL)

solubility ([3]; 25 °C, aqueous buffer, thermodynamic from solid, pure, 100 mM phosphate buffer pH 6.8, read-out: solubility of the pure XAT derivative): 1000 µM (≈ 180 µg/mL)
increase of XAT-derivative solubility by IBP and DCF (NSAIDs) [3]: 3 fold
SMILES: Cn1cnc2c1c(=O)[nH]c(=O)n2C [TBR, theobromine]
water solubility [6]: 2000 µM (≈ 360 µg/mL)
pKa [8]: 10.05
log P [7]: −0.78
